Tested on: Pyricularia oryzae
Test: Antimicrobial activity against Pyricularia oryzae P-2b assessed as drug concentration causing minimum morphological deformation
Type: functional

With O=c1[nH]cc(F)c(=O)[nH]1 [FLUOROURACIL] the Activity was “<=5 ug ml-1”.
